Test results: PubChem BioAssay AID1745844 (Carcinogenic Potency Database (CPDB), 2022)
Values joined by “and” are separate entries in the source; they are usually repeats but may differ in a detail not shown here. Equal entries are not always repeated. Active and inactive are the calls of the source. How the calls were made is not given here.

Tested on: rodent lifetime carcinogenesis bioassay, tumor incidence TD50
Assay: chronic cancer bioassays in animals – CPDB, compiled studies (AID 1745844)
[1] = mouse, strain A/He, females, in feed, site: liver, lesion: hepatoma, dosed 104 weeks, study length 104 weeks
[2] = mouse, strain A/He, females, in feed, site: lung, lesion: one or several types, types not named, dosed 104 weeks, study length 104 weeks
[3] = mouse, strain C3HfB, females, in feed, site: lung, lesion: one or several types, types not named, dosed 104 weeks, study length 104 weeks
[4] = mouse, strain CFLP, females, in feed, site: liver, lesion: hepatocellular tumor, dosed 78 weeks, study length 78 weeks

CCOc1ccc(NC(C)=O)cc1N
TD50 (mouse, strain B6C3F1, females, in feed, site: any site (literature study), lesion: several types, types named in the paper, dosed 78 weeks, study length 93 weeks): 569 mg/kg/day
TD50 (mouse, strain B6C3F1, females, in feed, site: lung, lesion: alveolar/bronchiolar adenoma + alveolar/bronchiolar carcinoma, dosed 78 weeks, study length 93 weeks): 8630 mg/kg/day
TD50 (mouse, strain B6C3F1, females, in feed, site: pituitary gland, lesion: adenoma, NOS + carcinoma, NOS + chromophobe adenoma, dosed 78 weeks, study length 93 weeks): 1050 mg/kg/day (inactive)
TD50 (mouse, strain B6C3F1, males, in feed, site: liver, lesion: hepatocellular adenoma + hepatocellular carcinoma + neoplastic nodule, dosed 78 weeks, study length 93 weeks): 8990 mg/kg/day
TD50 (mouse, strain B6C3F1, males, in feed, site: thyroid gland, lesion: adenocarcinoma, NOS + adenoma, NOS + follicular-cell adenoma + follicular-cell carcinoma, dosed 78 weeks, study length 93 weeks): 2070 mg/kg/day
TD50 (mouse, strain B6C3F1, males, in feed, site: thyroid gland, lesion: adenocarcinoma, NOS + follicular-cell carcinoma, dosed 78 weeks, study length 93 weeks): 4020 mg/kg/day
TD50 (mouse, strain B6C3F1, males, in feed, site: thyroid gland, lesion: follicular-cell carcinoma, dosed 78 weeks, study length 93 weeks): 3770 mg/kg/day
TD50 (rat, strain Fischer 344, females, in feed, site: adrenal gland, lesion: cortical adenoma + cortical carcinoma, dosed 78 weeks, study length 106 weeks): 415 mg/kg/day (inactive)
TD50 (rat, strain Fischer 344, females, in feed, site: liver, lesion: hepatocellular adenoma + hepatocellular carcinoma + neoplastic nodule, dosed 78 weeks, study length 106 weeks): 717 mg/kg/day
TD50 (rat, strain Fischer 344, males, in feed, site: thyroid gland, lesion: c-cell carcinoma, dosed 78 weeks, study length 106 weeks): 610 mg/kg/day (inactive)

O=C1c2ccccc2C(=O)c2c(O)c(O)cc(O)c21
TD50 (rat, strain Fischer 344, males, in feed, site: urinary bladder, lesion: malignant tumor, dosed 74 weeks, study length 74 weeks): 678 mg/kg/day
TD50 (rat, strain Fischer 344, males, in feed, site: urinary bladder, lesion: squamous-cell carcinoma, dosed 74 weeks, study length 74 weeks): 3680 mg/kg/day
TD50 (rat, strain Fischer 344, males, in feed, site: urinary bladder, lesion: transitional-cell carcinoma, dosed 74 weeks, study length 74 weeks): 865 mg/kg/day

C#C[C@]1(O)CC[C@H]2[C@@H]3CCc4cc(OC)ccc4[C@H]3CC[C@@]21C (tested in a mixture with another compound)
TD50 [1]: 25.2 mg/kg/day (inactive)
carcinogen call [1]: negative (inactive)
TD50 [2]: 4.62 mg/kg/day (inactive) and 4.31 mg/kg/day (inactive)
carcinogen call [2]: negative (inactive)
TD50 (mouse, strain BALB/c, females, in feed, site: several sites, sites named in the paper, lesion: squamous-cell carcinoma, dosed 86 weeks, study length 86 weeks): 2 mg/kg/day
carcinogen call (mouse, strain BALB/cHe, females, in feed, site: lung, lesion: one or several types, types not named, dosed 104 weeks, study length 104 weeks): negative (inactive)
carcinogen call (mouse, strain C3H/He (MTV+), females, in feed, site: liver, lesion: hepatoma, dosed 104 weeks, study length 104 weeks): negative (inactive)
TD50 (mouse, strain C3HfB, females, in feed, site: all sites, lesion: fibrosarcoma, dosed 104 weeks, study length 104 weeks): 3.93 mg/kg/day (inactive)
carcinogen call (mouse, strain C3HfB, females, in feed, site: liver, lesion: hepatoma, dosed 104 weeks, study length 104 weeks): negative (inactive)
TD50 [3]: 27.6 mg/kg/day (inactive)
carcinogen call [3]: negative (inactive)
TD50 (mouse, strain C57BL/He, females, in feed, site: hypophysis, lesion: chromophobe adenoma, dosed 104 weeks, study length 104 weeks): 1.75 mg/kg/day and 1.82 mg/kg/day
carcinogen call (mouse, strain C57BL/He, females, in feed, site: liver, lesion: hepatoma, dosed 104 weeks, study length 104 weeks): negative (inactive)
TD50 (mouse, strain C57BL/He, females, in feed, site: lung, lesion: one or several types, types not named, dosed 104 weeks, study length 104 weeks): 20.7 mg/kg/day (inactive)
carcinogen call (mouse, strain C57L/He x 129/Rr x C3HeB/De x SWR/Ly, females, by gavage, site: any site (literature study), lesion: several types, types named in the paper, dosed 69 weeks, study length 69 weeks): negative (inactive)
TD50 (mouse, strain C57L/He x 129/Rr x C3HeB/De x SWR/Ly, females, by gavage, site: any site (literature study), lesion: several types, types named in the paper, dosed 69 weeks, study length 82 weeks): 0.332 mg/kg/day (inactive)
carcinogen call (mouse, strain C57L/He x 129/Rr x C3HeB/De x SWR/Ly, females, by gavage, site: lung, lesion: one or several types, types not named, dosed 69 weeks, study length 69 weeks): negative (inactive)
TD50 (mouse, strain C57L, females, by gavage, site: pituitary gland, lesion: one or several types, types not named, dosed 89 weeks, study length 89 weeks): 0.151 mg/kg/day
TD50 [4]: 143 mg/kg/day (inactive)
carcinogen call [4]: negative (inactive)
carcinogen call (mouse, strain CFLP, males, in feed, site: liver, lesion: hepatocellular tumor, dosed 78 weeks, study length 78 weeks): negative (inactive)
TD50 (mouse, strain Swiss Webster, females, by gavage, site: liver, lesion: hepatocellular tumor, dosed 65 weeks, study length 80 weeks): 20.8 mg/kg/day (inactive)
